Results as given in patent publication EP0429372A1, “2-Azolyl nicotinate derivatives as herbicides” (RHONE-POULENC AGROCHIMIE, priority 1989, dated 1991).

Experiments:
Assay type in all cases: in vivo
mauvaises herbes [1] = conditions: post-emergence, 4000 g/ha
Source text: (§1) Des quantités appropriées des composés d'essai ont été dissoutes dans de l'acétone pour obtenir des solutions équivalant à des taux d'application de 250, 1000 ou 4000 g de composé d'essai par hectare (g/ha).
Les mauvaises herbes et les plantes cultivées ont été semées directement dans du compost de mise en pot John Innes dans des pots de 75 mm de profondeur et 70 mm de côté, sauf en ce qui concerne l'espèce du genre Amaranthus qui a été repiquée au stade de jeunes plants de semis et transférée dans les pots une semaine avant plulvérisation. Puis les plantes ont été cultivées dans la serre jusqu'à ce qu'elles soient prêtres à subir une pulvérisation avec les composés d'essai. Le nombre de plantes par pot étaient les suivants :
Les composés d'essai ont été appliqués aux plantes de la manière décrite dans le paragraphe (a). Un seul pot de chaque espèce de plante cultivée et de chaque espèce de mauvaise herbe a été attribué à chaque traitement, en association avec des témoins n'ayant pas subi de pulvérisation et des témoins ayant subi une pulvérisation avec de l'acétone seule.
Après traitement, les pots ont été maintenus dans une serre et ont été arrosés une fois par aspersion au bout de 24 heures, puis par sous - irrigation contrôlée. L'évaluation visuelle des dégâts infligés aux plantes cultivées et de la destruction des mauvaises herbes a été effectué 20 à 24 jours après pulvérisation. Les résultats ont été exprimés en pourcentage de réduction de croissance ou d'endommagement des plantes cultivées ou des mauvaises herbes, comparativement aux plantes présentes dans les pots témoins.

mauvaises herbes [2] = assay: Procedure 2 d): weed control, pre-emergence; conditions: 4000 g/ha (procédé 2D), visual rating 20 to 24 days after spraying, vs control pots
Source text: as §1
Les graines ont été semées dans des pots en matière plastique de 70 mm de côté et 75 mm de profondeur, dans de la terre non stérile provenant de Boarded Barns Farm ou un type de terre similaire provenant d'une source convenable. Les quantités de graines par pot étaient les suivantes :
Les composés de la présente invention ont été appliqués à la surface du sol, contenant les semences, de la manière décrite dans le paragraphe (a). Un seul pot de chaque plante cultivée et de chaque mauvaise herbe a été attribué à chaque traitement, en association avec des témoins n'ayant pas subi de pulvérisation et des témoins ayant subi une pulvérisation avec de l'acétone seule. Après traitement, les pots ont été maintenus dans une serre et ont été arrosés par aspersion pendant 3 jours, puis par une sous- irrigation controlée. L'évaluation visuelle des dégats infligés aux plantes cultivées a été effectuée 20 à 24 jours après pulvérisation. Les résultats ont été exprimés en pourcentage de réduction de croissance ou d'endommagement des plantes cultivées ou des mauvaises herbes, comparativement aux plantes présentes dans les pots témoins.

Convolvulus arvensis = conditions: post-emergence, 2000 g/ha, 576 h
Source text: (§2) Dans des pots de 7 x 7 x 8 cm remplis de terre agricole légère, on sème un nombre de graines déterminé en fonction de l'espèce végétale et de la grosseur de la graine.
(§3) On recouvre ensuite les graines d'une couche de terre d'environ 3 mm d'épaisseur et on laisse germer la graine jusqu'à ce qu'elle donne naissance à une plantule au stade convenable. Le stade de traitement pour les graminées est le stade "deuxième feuille en formation". Le stade de traitement pour les dicotylédones, est le stade "cotylédons étalés, première feuille vraie en développement".
(§4) Les pots sont alors traités par pulvérisation de bouillie en quantité correspondant à une dose volumique d'application de 500 l/ha et contenant la matière active à la concentration désirée.
(§5) La bouillie a été préparée de la même manière qu'à l'exemple A.
(§6) Les pots traités sont ensuite placés dans des bacs destinés à recevoir l'eau d'arrosage, en subirrigation, et maintenus pendant 24 jours à température ambiante sous 70 % d'humidité relative.
(§7) Au bout de 24 jours, on mesure un pourcentage (D) de destruction du nombre de pieds dans le pot traité par rapport au nombre de plantes dans les pots non traités (témoin). On mesure, sur les plantes traitées restantes, le pourcentage de réduction de taille (RT) par rapport aux plantes témoin.
(§8) Le pourcentage de volume foliaire non détruit par le produit est donc donné par la formule : [formula]
(§9) Cette valeur A est transformée en notation de 0 à 5 selon l'échelle suivante :
(§10) Ainsi, un produit est jugé comme sélectif vis à vis de la culture lorsque la valeur A notée est de 0 ou 1.
(§11) Les résultats obtenus sont présentés dans l'exemple C pour des doses d'application comprises entre 0,5 et 4 kg de matière active par hectare selon les produits.

Polygonum convolvulus = conditions: 2000 g/ha, 576 h
Source text: as §2, §3, §4, §5, §6, §7, §8, §9, §10, §11

Chrysanthemum segetum = conditions: post-emergence, 2000 g/ha, 576 h
Source text: as §2, §3, §4, §5, §6, §7, §8, §9, §10, §11

Sesbania exaltata = assay: Example C: selectivity test in major crops, post-emergence application; conditions: 2000 g/ha, 576 h
Source text: as §2, §3, §4, §5, §6, §7, §8, §9, §10, §11

Zea mays = assay: as above; conditions: crop (Maïs), dose 2 kg/ha, 24 days, score 0-5, 0 or 1 = selective; note: ranges in brackets are in %
Source text: as §2, §3, §4, §5, §6, §7, §8, §9, §10, §11

Solanum nigrum = assay: as above; conditions: 2000 g/ha, 576 h
Source text: as §2, §3, §4, §5, §6, §7, §8, §9, §10, §11

Ipomea pupurea = assay: as above; conditions: 2000 g/ha, 576 h
Source text: as §2, §3, §4, §5, §6, §7, §8, §9, §10, §11

Triticum aestivum = assay: as above; conditions: crop (Blé), dose 2 kg/ha, 24 days, score 0-5, 0 or 1 = selective; note: ranges in brackets are in %
Source text: as §2, §3, §4, §5, §6, §7, §8, §9, §10, §11

Viola tricolor = assay: as above; conditions: 2000 g/ha, 576 h
Source text: as §2, §3, §4, §5, §6, §7, §8, §9, §10, §11

Xanthium pennsylvanicum = assay: as above; conditions: 2000 g/ha, 576 h
Source text: as §2, §3, §4, §5, §6, §7, §8, §9, §10, §11

Oryza sativa = assay: as above; conditions: crop (Riz), dose 2 kg/ha, 24 days, score 0-5, 0 or 1 = selective; note: ranges in brackets are in %
Source text: as §2, §3, §4, §5, §6, §7, §8, §9, §10, §11

C#CCOC(=O)c1cccnc1-c1nc2ccccc2n1S(=O)(=O)N(C)C [compound 99]
destruction d'une ou plusieurs des espèces de mauvaises herbes (mauvaises herbes [1]): ≥ 90% | réduction de la croissance d'une ou plusieurs des espèces de mauvaises herbes (mauvaises herbes [2]): ≥ 90%

CCCCCCOC(=O)c1cccnc1-c1nc2ccccc2n1S(=O)(=O)N(C)C [compound 103]
destruction d'une ou plusieurs des espèces de mauvaises herbes (mauvaises herbes [1]): ≥ 90% | réduction de la croissance d'une ou plusieurs des espèces de mauvaises herbes (mauvaises herbes [2]): ≥ 90%

Cc1ccc(C(=O)O)c(-c2nc3ccccc3n2S(=O)(=O)N(C)C)n1 [compound 93]
destruction d'une ou plusieurs des espèces de mauvaises herbes (mauvaises herbes [1]): ≥ 90% | réduction de la croissance d'une ou plusieurs des espèces de mauvaises herbes (mauvaises herbes [2]): ≥ 90%

Cc1ccc2c(nc(-c3ncccc3C(=O)O)n2S(=O)(=O)N(C)C)c1C [compound 91]
destruction d'une ou plusieurs des espèces de mauvaises herbes (mauvaises herbes [1]): ≥ 90% | réduction de la croissance d'une ou plusieurs des espèces de mauvaises herbes (mauvaises herbes [2]): ≥ 90%

CN(C)S(=O)(=O)n1c(-c2ncccc2C(=O)O)nc2c(Cl)cccc21 [compound 79]
ACTIVITE HERBICIDE DE POST LEVEE C O N (Convolvulus arvensis): 4 (10 à 30) | ACTIVITE HERBICIDE DE POST LEVEE P O L (Polygonum convolvulus): 3 (30 à 50) | ACTIVITE HERBICIDE DE POST LEVEE C H Y (Chrysanthemum segetum): 4 (10 à 30) | ACTIVITE HERBICIDE DE POST LEVEE S E S (Sesbania exaltata): 2 (50 à 70) | ACTIVITE HERBICIDE DE POST LEVEE Z E A (Zea mays): 0 (90 à 100) | ACTIVITE HERBICIDE DE POST LEVEE S O L (Solanum nigrum): 3 (30 à 50) | ACTIVITE HERBICIDE DE POST LEVEE I P O (Ipomea pupurea): 4 (10 à 30) | ACTIVITE HERBICIDE DE POST LEVEE T R Z (Triticum aestivum): 0 (90 à 100) | ACTIVITE HERBICIDE DE POST LEVEE V I O (Viola tricolor): 1 (70 à 90) | ACTIVITE HERBICIDE DE POST LEVEE X A N (Xanthium pennsylvanicum): 1 (70 à 90) | ACTIVITE HERBICIDE DE POST LEVEE O R Y (Oryza sativa): 0 (90 à 100)
